Laboratory results reported in ChEMBL document CHEMBL5137095, “N-Benzyl Benzamide Derivatives as Selective Sub-Nanomolar Butyrylcholinesterase Inhibitors for Possible Treatment in Advanced Alzheimer's Disease” (J Med Chem, 2022).
Calls of active or inactive are those of the source. The calls are words filed in the database; no cut-off is given here.

Columns and labels:
PC-12 [1] = assay: Neuroprotective activity against H2O2-induced cell damage in rat PC-12 cells at 5 uM pretreated for 2 hrs followed by H2O2 addition and measured after 24 hrs by MTT assay; assay type: functional, cell-based
Mus musculus [2] = assay: Cognitive enhancing effect in amyloid beta (1 to 42)-induced ICR mouse model assessed as reduction in latency at 1 mg/kg, icv measured on day 14 by Morris Water maze method; assay type: functional, organism-based
Mus musculus [3] = assay: Cognitive enhancing effect in amyloid beta (1 to 42)-induced ICR mouse model assessed as reduction in latency at 2.5 mg/kg, icv measured on day 14 by Morris Water maze method; assay type: functional, organism-based
SH-SY5Y [4] = assay: Neuroprotective activity against amyloid beta (1 to 42)-induced cell damage in human SH-SY5Y cells assessed as inhibition of ROS level pretreated for 2 hrs followed by amyloid beta (1 to 42) addition and measured after 24 hrs by DCFH-DA staining based fluorescence microscopy analysis; assay type: functional; details: time 26.0 hrs
Mus musculus [5] = assay: Cognitive enhancing effect in amyloid beta (1 to 42)-induced ICR mouse model assessed as reduction in escape latency at 0.5 mg/kg, icv measured on day 14 by Morris Water maze method; assay type: functional, organism-based; details: time 14.0 day
Mus musculus [6] = assay: Cognitive enhancing effect in amyloid beta (1 to 42)-induced ICR mouse model assessed as reduction in amyloid beta (1 to 42) peptide level in brain administered via icv measured on day 14 by ELISA; assay type: functional, organism-based; details: dose 0.5-10 mg/kg, time 14.0 day, DDE = dose-dependent effect
Mus musculus [7] = assay: Cognitive enhancing effect in amyloid beta (1 to 42)-induced ICR mouse model assessed as increase in ACh level in brain at 0.5 to 10, icv measured on day 14 by ELISA; assay type: functional, organism-based; details: dose 0.5-10 mg/kg, time 14.0 day
Mus musculus [8] = assay: Cognitive enhancing effect in amyloid beta (1 to 42)-induced ICR mouse model assessed as decrease in IFN-gamma level in brain at 0.5 to 10, icv measured on day 14 by ELISA; assay type: functional, organism-based; details: dose 0.5-10 mg/kg, time 14.0 day
Mus musculus [9] = assay: Cognitive enhancing effect in amyloid beta (1 to 42)-induced ICR mouse model assessed as decrease in TNF-alpha level in brain at 0.5 to 10, icv measured on day 14 by ELISA; assay type: functional, organism-based; details: dose 0.5-10 mg/kg, time 14.0 day
SH-SY5Y [10] = assay: Neuroprotective activity against GA-induced cell damage in human SH-SY5Y cells pretreated for 2 hrs followed by GA addition and measured after 24 hrs by MTT assay; assay type: functional, cell-based; details: dose 0.1-5 µM, time 26.0 hrs, DDE = dose-dependent effect
Mus musculus [11] = assay: Cognitive enhancing effect in amyloid beta (1 to 42)-induced ICR mouse model assessed as reduction in amyloid beta (1 to 42) peptide level in brain at 0.5 to 10 mg/kg, icv measured on day 14 by ELISA; assay type: functional, organism-based; details: dose 0.5-10 mg/kg
PC-12 [12] = assay: Neuroprotective activity against H2O2-induced cell damage in rat PC-12 cells pretreated for 2 hrs followed by H2O2 addition and measured after 24 hrs by MTT assay; assay type: functional, cell-based; details: dose 2.5-10 µM, time 26.0 hrs, DDE = dose-dependent effect
SH-SY5Y [13] = assay: Neuroprotective activity against amyloid beta (1 to 42)-induced cell damage in human SH-SY5Y cells pretreated for 2 hrs followed by amyloid beta (1 to 42) addition and measured after 24 hrs by MTT assay; assay type: functional, cell-based; details: dose 0.5-2 µM, time 26.0 hrs, DDE = dose-dependent effect

CCCN(CCC)Cc1ccccc1CNC(=O)c1cccc(NC(=O)c2cccs2)c1
Activity (PC-12 [1]): Active

CCN(C)C(=O)Oc1cccc([C@H](C)N(C)C)c1
Activity (Mus musculus [2]): Active | Activity (Mus musculus [3]): Active

CCN(CC)Cc1ccccc1CNC(=O)c1cc(C)cc(NC(=O)c2ccc(F)cc2)c1
Activity (SH-SY5Y [4]): Active | Activity (Mus musculus [5]): Active | Activity (Mus musculus [6]): Dde | Activity (Mus musculus [7]): Active | Activity (Mus musculus [8]): Active | Activity (Mus musculus [9]): Active

CCN(CC)Cc1ccccc1CNC(=O)c1cccc(NC(=O)c2ccc(F)cc2)c1C
Activity (SH-SY5Y [4]): Active

CCN(CC)Cc1ccccc1CNC(=O)c1cc(Br)cc(NC(=O)c2ccc(F)cc2)c1
Activity (SH-SY5Y [10]): Dde

CN(C)Cc1ccccc1CNC(=O)c1cccc(NC(=O)c2cccs2)c1
Activity (PC-12 [1]): Active

CCN(CC)Cc1ccccc1CNC(=O)c1cccc(NC(=O)c2ccc(F)cc2)c1
Activity (Mus musculus [11]): Active | Activity (PC-12 [1]): Active | Activity (PC-12 [12]): Dde | Activity (SH-SY5Y [13]): Dde | Activity (SH-SY5Y [4]): Active | Activity (Mus musculus [5]): Active | Activity (Mus musculus [7]): Active | Activity (Mus musculus [8]): Active | Activity (Mus musculus [9]): Active

COc1ccc2c3c1O[C@H]1C[C@@H](O)C=C[C@@]31CCN(C)C2
Activity (Mus musculus [2]): Active | Activity (Mus musculus [3]): Active
